The target of series [1] is T1, METTL3-METTL14 (Homo sapiens, UniProt Q86U44). The note with it: for LLE (lipophilic ligand efficiency, pIC50-logP): calculated with DataWarrior; for LE (ligand efficiency): from TR-FRET IC50.
Target sequence in this assay (Q9HCE5 whole entry): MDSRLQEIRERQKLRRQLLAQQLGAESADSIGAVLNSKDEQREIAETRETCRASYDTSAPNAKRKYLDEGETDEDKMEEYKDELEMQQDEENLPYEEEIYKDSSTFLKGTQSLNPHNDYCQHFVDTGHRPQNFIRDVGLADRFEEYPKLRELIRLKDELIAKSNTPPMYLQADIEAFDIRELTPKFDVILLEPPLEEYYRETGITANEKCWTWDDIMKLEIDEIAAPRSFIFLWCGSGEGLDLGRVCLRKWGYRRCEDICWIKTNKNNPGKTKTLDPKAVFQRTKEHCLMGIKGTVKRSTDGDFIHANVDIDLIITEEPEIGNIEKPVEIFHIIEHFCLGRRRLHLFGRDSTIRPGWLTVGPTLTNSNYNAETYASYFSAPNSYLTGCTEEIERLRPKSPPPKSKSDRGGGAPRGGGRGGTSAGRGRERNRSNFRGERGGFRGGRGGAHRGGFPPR
Target sequence in this assay (Q86U44 whole entry): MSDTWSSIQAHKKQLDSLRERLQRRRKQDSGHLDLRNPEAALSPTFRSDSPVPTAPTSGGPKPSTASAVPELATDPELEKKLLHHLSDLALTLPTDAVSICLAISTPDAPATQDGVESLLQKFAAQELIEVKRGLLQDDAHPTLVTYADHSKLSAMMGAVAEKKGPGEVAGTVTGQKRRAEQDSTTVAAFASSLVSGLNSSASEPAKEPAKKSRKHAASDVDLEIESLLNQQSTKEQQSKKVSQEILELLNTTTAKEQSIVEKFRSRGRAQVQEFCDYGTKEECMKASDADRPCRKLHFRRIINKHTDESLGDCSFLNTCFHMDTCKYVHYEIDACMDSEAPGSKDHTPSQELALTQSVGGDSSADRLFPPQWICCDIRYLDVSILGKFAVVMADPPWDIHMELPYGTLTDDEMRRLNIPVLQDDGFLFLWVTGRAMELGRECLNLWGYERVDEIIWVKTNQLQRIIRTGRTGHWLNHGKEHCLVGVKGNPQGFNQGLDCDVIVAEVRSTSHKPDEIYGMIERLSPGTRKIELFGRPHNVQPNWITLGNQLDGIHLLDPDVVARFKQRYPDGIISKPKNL
Series [2] deals with T1, METTL3-METTL14. Briefly: biochemical.
Target sequence in this assay (Q9HCE5 whole entry): as the sequence (Q9HCE5 whole entry) above
Target sequence in this assay (Q86U44 whole entry): as the sequence (Q86U44 whole entry) above
In series [3] the target is T1, METTL3-METTL14. Kind of series: Protein thermal shift assay, METTL3/METTL14. The note with it: read-out: ΔTm of METTL3/METTL14.
Target sequence in this assay (Q86U44 whole entry): as above
Target sequence in this assay (Q9HCE5 whole entry partner): as the sequence (Q9HCE5 whole entry) above
Series [4] relates to m^6A/A ratio in polyadenylated RNA, MOLM-13 cells. Briefly: m6A/A ratio in polyadenylated RNA by UPLC-MS/MS, MOLM-13. The conditions noted are these: Homo sapiens, MOLM-13, 16 h, read-out: EC50 reduction of m^6A/A in polyadenylated RNA.
The conditions of series [5]: Rat liver microsomes.
Where [6] appears, read: read-out: IC50 for N6-adenosine-methyltransferase, exemplary PROTAC compounds, Table 9, HTRF, triplicates.

Like-named read-outs stand apart in the source and are kept apart here.

`CC1(C)CCN(Cc2cc(F)c(N3CC(=O)NC4(CCN(c5cc(NCCCNC(=O)CCCCCCCCn6cc(CNc7cccc8c7C(=O)N(C7CCC(=O)NC7=O)C8=O)nn6)ncn5)CC4)C3)cc2F)CC1` (stereo not shown) [Compound 58-1]: the IC50 on METTL3-METTL14 [1] (setting [6]) was determined as 67 nM.
Turning to `CC1(C)CCN(Cc2ccc(N3CC(=O)NC4(CCN(c5cc(NCCCNC(=O)CCCCCCCCn6cc(CNc7cccc8c7C(=O)N(C7CCC(=O)NC7=O)C8=O)nn6)ncn5)CC4)C3)cc2)CC1` (stereo not shown) [Compound 57-1], the IC50 against METTL3-METTL14 [2] came out at 480 nM.
For the compound `CNc1cc(N2CCC(O)(CNc3ccc(CN4CCC(C)(C)CC4)cn3)CC2)ncn1` [Compound 3], at METTL3-METTL14 [1] (TR-FRET assay), the IC50 was determined as 4600 nM. The “LLE (lipophilic ligand efficiency, pIC50-logP)” value at METTL3-METTL14 [1] is 3.2.
Take `CNc1cc(N2CCC3(CC2)CN(c2cc(F)c(CN4CCC(C)(C)CC4)cc2F)CC(=O)N3)ncn1` [Compound 22, 4-(4-((4,4-Dimethylpiperidin-1-yl)methyl)-2,5-difluorophenyl)-9-(6-(methylamino)pyrimidin-4-yl)-1,4,9-triazaspiro[5.5]undecan-2-one]: at METTL3-METTL14 [3], the ΔTm at 100 µM came out at 4.7 °C. The EC50 in series [4] is 700 nM.
Compound `CC1(C)CCN(Cc2cc(F)c(N3CC(=O)NC4(CCN(c5cc(NCC6CCN(C(=O)CCCCCCCCN7CCN(c8cccc9c8C(=O)N(C8CCC(=O)NC8=O)C9=O)CC7)CC6)ncn5)CC4)C3)cc2F)CC1` (stereo not shown) [Compound 49-1] had an IC50 on METTL3-METTL14 [2] of 5 nM.
On to `CC1(C)CCN(Cc2ccc(N3CC(=O)NC4(CCN(c5ccnc6[nH]ccc56)CC4)C3)cc2)CC1` [Compound 18], for which, at METTL3-METTL14 [1], the “LLE (lipophilic ligand efficiency, pIC50-logP)” value is 2.3 and the “LE (ligand efficiency)” value is 0.20 kcal.mol^−1 heavy atom count^−1.
As to `CC1(C)CCN(Cc2ccc(N3CC(=O)NC4(CCN(c5cc(NCCCNC(=O)CCOCCOCCOCCNc6cccc7c6C(=O)N(C6CCC(=O)NC6=O)C7=O)ncn5)CC4)C3)cc2)CC1` (stereo not shown) [Compound 9-5], the IC50 on METTL3-METTL14 [1] (setting [6]) came out at 1060 nM.
`CC1(C)CCN(Cc2cc(F)c(N3CC(=O)NC4(CCN(c5cc(NCCCNC(=O)CCCCCCCCCCNc6cccc7c6CN(C6CCC(=O)NC6=O)C7=O)ncn5)CC4)C3)cc2F)CC1` (stereo not shown) [Compound 56-1]: on METTL3-METTL14 [1] (setting [6]), the IC50 came out at 300 nM.
`CC1(C)CCN(Cc2ccc(N3CC(=O)NC4(CCN(c5nc(Cl)nc6[nH]ccc56)CC4)C3)cc2)CC1` [Compound 19, 9-(2-Chloro-7H-pyrrolo[2,3-d]pyrimidin-4-yl)-4-(4-((4,4-dimethylpiperidin-1-yl)methyl)phenyl)-1,4,9-triazaspiro[5.5]undecan-2-one]: on METTL3-METTL14 [1], the “LLE (lipophilic ligand efficiency, pIC50-logP)” value was 3.9. Also, in series [5], the “RLM t1/2” value stood at 32 min.
Regarding `CC1(C)CCN(Cc2ccc(NCC3(O)CCN(c4cc(NCc5ccccc5)ncn4)CC3)cn2)CC1` [Compound 5], half-maximal inhibition against METTL3-METTL14 [1] (TR-FRET assay) (IC50) required 790 nM.
`CC1(C)CCN(Cc2ccc(N3CC(=O)NC4(CCN(c5cc(NCCCNC(=O)CCOCCOCCOCCOCCNc6cccc7c6C(=O)N(C6CCC(=O)NC6=O)C7=O)ncn5)CC4)C3)cc2)CC1` (stereo not shown) [Compound 10-6]: the IC50 on METTL3-METTL14 [1] (setting [6]) is 590 nM.
The same measure, in the same setting: as for `CC1(C)CCN(Cc2cc(F)c(N3CC(=O)NC4(CCN(c5cc(NCCCNC(=O)CCCCCCCCNc6cccc7c6CN(C6CCC(=O)NC6=O)C7=O)ncn5)CC4)C3)cc2F)CC1` (stereo not shown) [Compound 55-1], the figure is 66 nM; as for `CC1(C)CCN(Cc2cc(F)c(N3CC(=O)NC4(CCN(c5cc(NCc6cccc(CNC(=O)CCCCCCCCn7cc(CNc8cccc9c8C(=O)N(C8CCC(=O)NC8=O)C9=O)nn7)c6)ncn5)CC4)C3)cc2F)CC1` (stereo not shown) [Compound 52-1], 88 nM.
`CNc1cc(N2CCC(O)(CNc3ccc(CN4CCC(C)(C)CC4)cc3)CC2)ncn1` [Compound 2]: 5000 nM corresponded to half-maximal inhibition against METTL3-METTL14 [1] (TR-FRET assay) (IC50). Further, on METTL3-METTL14 [1], the “LLE (lipophilic ligand efficiency, pIC50-logP)” value is on record as 2.5.
`CC1(C)CCN(Cc2cc(F)c(N3CC(=O)NC4(CCN(c5cc(NCc6cccc(CNC(=O)CCn7cc(CNc8cccc9c8C(=O)N(C8CCC(=O)NC8=O)C9=O)nn7)c6)ncn5)CC4)C3)cc2F)CC1` (stereo not shown) [Compound 53-1] showed an IC50 at METTL3-METTL14 [2] of 200 nM.
With `CN(C)c1cc(N2CCC3(CC2)CN(c2ccc(CN4CCC(C)(C)CC4)cc2)CC(=O)N3)ncn1` [Compound 14], at METTL3-METTL14 [1], the “LLE (lipophilic ligand efficiency, pIC50-logP)” value is 3.2 and the “LE (ligand efficiency)” value is 0.23 kcal.mol^−1 heavy atom count^−1.
With `CNc1cc(N2CCC3(CC2)CN(c2ccc(CN4CCC(C)(C)CC4)cc2)CC(=O)N3C)ncn1` [Compound 13], the IC50 against METTL3-METTL14 [1] (TR-FRET assay) is 1500 nM. On METTL3-METTL14 [1], the “LLE (lipophilic ligand efficiency, pIC50-logP)” value was 3.0 and the “LE (ligand efficiency)” value was 0.22 kcal.mol^−1 heavy atom count^−1.
`CNc1cc(N2CCC(O)(CNc3ccc(CN4CCC(C)(C)CC4)nc3)CC2)ncn1` [Compound 4]: on METTL3-METTL14 [1] (TR-FRET assay), the midpoint of inhibition, the IC50, lay at 5800 nM. Also, the “LLE (lipophilic ligand efficiency, pIC50-logP)” value on METTL3-METTL14 [1] is 3.4.
Regarding `CC1(C)CCN(Cc2cc(F)c(N3CC(=O)NC4(CCN(c5cc(NCc6cccc(CNC(=O)CCCCCCCCCCNc7cccc8c7CN(C7CCC(=O)NC7=O)C8=O)c6)ncn5)CC4)C3)cc2F)CC1` (stereo not shown) [Compound 51-1], the IC50 on METTL3-METTL14 [1] (setting [6]) turned out to be 160 nM.
With `CNc1cc(N2CCC3(CC2)CN(c2ccc(CN4CCC(C)(C)CC4)cc2)CC(=O)N3)ncn1` [Compound 10, 4-(4-((4,4-dimethylpiperidin-1-yl)methyl)phenyl)-9-(6-(methylamino)pyrimidin-4-yl)-1,4,9-triazaspiro[5.5]undecan-2-one], the IC50 against METTL3-METTL14 [1] (TR-FRET assay) stood at 89 nM.
As to `CC1(C)CCN(Cc2ccc(N3CC(=O)NC4(CCN(c5cc(NCCCNC(=O)CCOCCOCCNc6cccc7c6C(=O)N(C6CCC(=O)NC6=O)C7=O)ncn5)CC4)C3)cc2)CC1` (stereo not shown) [Compound 8-4], the IC50 on METTL3-METTL14 [1] (setting [6]) turned out to be 2470 nM.
As for `CC1(C)CCN(Cc2cc(F)c(N3CC(=O)NC4(CCN(c5cc(NCCCNC(=O)CCCCCCCCCCn6cc(CNc7cccc8c7C(=O)N(C7CCC(=O)NC7=O)C8=O)nn6)ncn5)CC4)C3)cc2F)CC1` (stereo not shown) [Compound 59-1], on METTL3-METTL14 [1] (setting [6]), the IC50 came to 220 nM.
In the case of `CC1(C)CCN(Cc2ccc(C(=O)NC3CCN(c4cc(NCc5ccccc5)ncn4)CC3)cn2)CC1` [Compound 6], at METTL3-METTL14 [1], the “LLE (lipophilic ligand efficiency, pIC50-logP)” value was 1.7 and the “LE (ligand efficiency)” value was 0.20 kcal.mol^−1 heavy atom count^−1.
Take `CC1(C)CCN(Cc2ccc(N3CC(=O)NC4(CCN(c5cc(NCCCNC(=O)CCCCCCCCCCCCCCNc6cccc7c6CN(C6CCC(=O)NC6=O)C7=O)ncn5)CC4)C3)cc2)CC1` (stereo not shown) [Compound 54-1]: at METTL3-METTL14 [1] (setting [6]), the IC50 was 1220 nM.
With `CC(C)Nc1cc(N2CCC3(CC2)CN(c2ccc(CN4CCC(C)(C)CC4)cc2)CC(=O)N3)ncn1` [Compound 15, 4-(4-((4,4-Dimethylpiperidin-1-yl)methyl)phenyl)-9-(6-(isopropylamino)pyrimidin-4-yl)-1,4,9-triazaspiro[5.5]undecan-2-one], on METTL3-METTL14 [1], the “LLE (lipophilic ligand efficiency, pIC50-logP)” value was 3.2 and the “LE (ligand efficiency)” value is 0.24 kcal.mol^−1 heavy atom count^−1.
On to `CC1(C)CCN(Cc2ccc(N3CC(=O)NC4(CCN(c5cc(NCCCNC(=O)CCOCCOCCOCCOCCOCCNc6cccc7c6C(=O)N(C6CCC(=O)NC6=O)C7=O)ncn5)CC4)C3)cc2)CC1` (stereo not shown) [Compound 11-7], for which the IC50 on METTL3-METTL14 [1] (setting [6]) was determined as 640 nM.
`CNc1cc(N2CC3(CN(c4ccc(CN5CCC(C)(C)CC5)cc4)CC(=O)N3)C2)ncn1` [Compound 11, 8-(4-((4,4-Dimethylpiperidin-1-yl)methyl)phenyl)-2-(6-(methylamino)pyrimidin-4-yl)-2,5,8-triazaspiro[3.5]nonan-6-one]: on METTL3-METTL14 [1], the “LLE (lipophilic ligand efficiency, pIC50-logP)” value was 4.5 and the “LE (ligand efficiency)” value is on record as 0.26 kcal.mol^−1 heavy atom count^−1. Further, in series [5], the “RLM t1/2” value amounted to 70 min.
Turning to `CNc1cc(N2CCC3(CC2)CN(c2ccc(CN4CCC(C)(C)CC4)cc2)C(=O)N3)ncn1` [Compound 12], on METTL3-METTL14 [1], the “LLE (lipophilic ligand efficiency, pIC50-logP)” value is 2.6 and the “LE (ligand efficiency)” value is listed as 0.23 kcal.mol^−1 heavy atom count^−1.
Turning to `CC1(C)CCN(Cc2ccc(N3CC(=O)NC4(CCN(c5cc(NCCCNC(=O)CNc6cccc7c6CN(C6CCC(=O)NC6=O)C7=O)ncn5)CC4)C3)cc2)CC1` (stereo not shown) [Compound 15-13], the IC50 on METTL3-METTL14 [2] was 520 nM.
`CNc1cc(N2CCCC(O)(CNC(=O)c3ccc(CN4CCC(C)(C)CC4)cc3)C2)ncn1` (stereo not shown) [Compound 1]: on METTL3-METTL14 [1], the “LLE (lipophilic ligand efficiency, pIC50-logP)” value is on record as 2.5 and the “LE (ligand efficiency)” value is on record as 0.21 kcal.mol^−1 heavy atom count^−1.
Take `Nc1ncnc2c1ncn2[C@@H]1O[C@H](CSCC[C@H](N)C(=O)O)[C@@H](O)[C@H]1O` [SAH, S-adenosyl-L-homocysteine, reference compound]: the ΔTm at 100 µM at METTL3-METTL14 [3] was 2.8 °C.
As for `CC1(C)CCN(Cc2ccc(N3CC(=O)NC4(CCN(c5cc(NCCCNC(=O)CCn6cc(CNc7cccc8c7C(=O)N(C7CCC(=O)NC7=O)C8=O)nn6)ncn5)CC4)C3)cc2)CC1` (stereo not shown) [Compound 13-11], the IC50 at METTL3-METTL14 [2] came to 1800 nM.
For the compound `CC1(C)CCN(Cc2ccc(N3CC(=O)NC4(CCN(c5cc(NCCCNC(=O)CCCCCCCCNc6cccc7c6CN(C6CCC(=O)NC6=O)C7=O)ncn5)CC4)C3)cc2)CC1` (stereo not shown) [Compound 14-12], the IC50 at METTL3-METTL14 [1] (setting [6]) amounted to 260 nM.
Same read-out and setting: then `CC1(C)CCN(Cc2cc(F)c(N3CC(=O)NC4(CCN(c5cc(NCc6cccc(CNC(=O)CCCCCCCCNc7cccc8c7CN(C7CCC(=O)NC7=O)C8=O)c6)ncn5)CC4)C3)cc2F)CC1` (stereo not shown) [Compound 50-1], with 67 nM.
